Active and inactive are the calls of the source. The calls are words filed in the database; no cut-off is given here.
Tests used:
Histone deacetylase 8 = target: T1, Histone deacetylase 8 (Homo sapiens, UniProt Q9BY41); test: Inhibition of HDAC8 (unknown origin) after 60 mins by fluorescence assay
T1 sequence (Q9BY41 whole entry): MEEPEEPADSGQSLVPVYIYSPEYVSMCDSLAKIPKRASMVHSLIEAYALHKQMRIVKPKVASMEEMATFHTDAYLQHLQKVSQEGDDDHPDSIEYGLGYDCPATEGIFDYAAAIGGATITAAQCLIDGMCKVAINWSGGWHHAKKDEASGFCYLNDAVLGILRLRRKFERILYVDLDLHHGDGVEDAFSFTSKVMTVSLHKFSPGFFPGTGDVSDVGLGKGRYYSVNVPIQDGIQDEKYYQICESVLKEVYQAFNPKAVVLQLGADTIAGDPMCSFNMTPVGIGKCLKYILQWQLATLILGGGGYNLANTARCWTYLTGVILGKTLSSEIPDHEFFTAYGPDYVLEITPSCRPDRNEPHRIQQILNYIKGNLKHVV

[1] = target: T2, Protein deacetylase HDAC6 (Homo sapiens, UniProt Q9UBN7); test: Inhibition of HDAC6 (unknown origin) after 60 mins by fluorescence assay
T2 sequence (Q9UBN7 whole entry): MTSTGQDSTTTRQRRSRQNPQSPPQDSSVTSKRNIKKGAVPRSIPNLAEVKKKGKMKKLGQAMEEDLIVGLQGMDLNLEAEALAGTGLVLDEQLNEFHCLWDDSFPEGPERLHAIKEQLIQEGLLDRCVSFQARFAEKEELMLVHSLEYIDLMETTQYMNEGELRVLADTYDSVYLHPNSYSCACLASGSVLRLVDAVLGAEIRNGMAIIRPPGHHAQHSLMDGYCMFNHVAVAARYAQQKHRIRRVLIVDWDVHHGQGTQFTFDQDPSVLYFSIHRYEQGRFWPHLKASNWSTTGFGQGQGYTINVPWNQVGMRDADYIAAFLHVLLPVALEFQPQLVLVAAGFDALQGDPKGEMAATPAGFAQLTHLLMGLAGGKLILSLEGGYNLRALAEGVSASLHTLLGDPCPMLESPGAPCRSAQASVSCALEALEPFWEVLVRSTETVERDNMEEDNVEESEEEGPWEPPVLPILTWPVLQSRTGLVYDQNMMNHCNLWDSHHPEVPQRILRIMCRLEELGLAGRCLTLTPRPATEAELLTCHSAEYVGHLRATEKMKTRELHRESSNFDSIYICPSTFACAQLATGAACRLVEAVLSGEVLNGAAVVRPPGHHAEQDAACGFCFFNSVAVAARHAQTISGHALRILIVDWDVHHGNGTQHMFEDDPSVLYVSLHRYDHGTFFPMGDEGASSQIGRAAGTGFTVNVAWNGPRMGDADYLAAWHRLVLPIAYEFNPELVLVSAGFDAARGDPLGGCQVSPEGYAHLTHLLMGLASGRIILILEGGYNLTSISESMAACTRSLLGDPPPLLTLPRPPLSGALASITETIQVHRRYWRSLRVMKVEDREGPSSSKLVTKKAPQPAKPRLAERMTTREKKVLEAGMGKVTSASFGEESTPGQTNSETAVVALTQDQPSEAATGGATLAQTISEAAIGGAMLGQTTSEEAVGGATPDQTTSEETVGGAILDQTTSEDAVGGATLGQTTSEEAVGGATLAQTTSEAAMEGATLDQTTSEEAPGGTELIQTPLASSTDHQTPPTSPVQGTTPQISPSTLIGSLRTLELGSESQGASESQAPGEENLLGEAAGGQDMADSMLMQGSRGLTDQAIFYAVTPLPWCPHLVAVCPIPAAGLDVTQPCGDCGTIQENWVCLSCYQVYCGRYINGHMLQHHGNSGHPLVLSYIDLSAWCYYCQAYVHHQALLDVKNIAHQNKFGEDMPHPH

Histone deacetylase 4 = Histone deacetylase 4 (Homo sapiens, UniProt P56524); test: Inhibition of HDAC4 (unknown origin) after 60 mins by fluorescence assay
Sequence of Histone deacetylase 4 (P56524 whole entry): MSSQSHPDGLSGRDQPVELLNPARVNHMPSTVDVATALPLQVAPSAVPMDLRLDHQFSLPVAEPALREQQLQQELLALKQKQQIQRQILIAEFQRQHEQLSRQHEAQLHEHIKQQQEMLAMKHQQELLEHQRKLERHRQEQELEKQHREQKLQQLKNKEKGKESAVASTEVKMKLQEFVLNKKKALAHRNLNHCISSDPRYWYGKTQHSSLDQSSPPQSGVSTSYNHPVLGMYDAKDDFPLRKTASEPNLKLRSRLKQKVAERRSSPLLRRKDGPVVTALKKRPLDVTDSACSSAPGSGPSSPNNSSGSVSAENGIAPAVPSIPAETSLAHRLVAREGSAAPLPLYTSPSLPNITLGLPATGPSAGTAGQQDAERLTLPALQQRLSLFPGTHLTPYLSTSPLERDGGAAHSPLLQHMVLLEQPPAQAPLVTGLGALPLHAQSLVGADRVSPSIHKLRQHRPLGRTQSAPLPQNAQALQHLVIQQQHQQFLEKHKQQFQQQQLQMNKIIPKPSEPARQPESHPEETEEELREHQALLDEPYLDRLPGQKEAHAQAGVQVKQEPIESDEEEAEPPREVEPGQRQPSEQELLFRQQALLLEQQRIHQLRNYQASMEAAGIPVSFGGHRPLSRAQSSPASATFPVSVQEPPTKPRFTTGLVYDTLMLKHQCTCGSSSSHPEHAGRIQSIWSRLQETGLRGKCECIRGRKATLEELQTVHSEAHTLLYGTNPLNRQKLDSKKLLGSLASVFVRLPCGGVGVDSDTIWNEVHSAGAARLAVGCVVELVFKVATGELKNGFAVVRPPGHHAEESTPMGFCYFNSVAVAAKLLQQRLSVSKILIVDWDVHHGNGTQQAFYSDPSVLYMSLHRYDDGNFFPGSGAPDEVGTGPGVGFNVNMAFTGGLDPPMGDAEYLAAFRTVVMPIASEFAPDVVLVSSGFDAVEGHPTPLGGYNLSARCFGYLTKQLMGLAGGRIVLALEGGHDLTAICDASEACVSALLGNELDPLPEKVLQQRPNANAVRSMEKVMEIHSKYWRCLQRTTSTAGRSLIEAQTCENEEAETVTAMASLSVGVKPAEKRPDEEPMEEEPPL

Histone deacetylase 2 [2] = target: T3, Histone deacetylase 2 (Homo sapiens, UniProt Q92769); test: Inhibition of HDAC2 (unknown origin) after 60 mins by fluorescence assay
T3 sequence (Q92769 whole entry): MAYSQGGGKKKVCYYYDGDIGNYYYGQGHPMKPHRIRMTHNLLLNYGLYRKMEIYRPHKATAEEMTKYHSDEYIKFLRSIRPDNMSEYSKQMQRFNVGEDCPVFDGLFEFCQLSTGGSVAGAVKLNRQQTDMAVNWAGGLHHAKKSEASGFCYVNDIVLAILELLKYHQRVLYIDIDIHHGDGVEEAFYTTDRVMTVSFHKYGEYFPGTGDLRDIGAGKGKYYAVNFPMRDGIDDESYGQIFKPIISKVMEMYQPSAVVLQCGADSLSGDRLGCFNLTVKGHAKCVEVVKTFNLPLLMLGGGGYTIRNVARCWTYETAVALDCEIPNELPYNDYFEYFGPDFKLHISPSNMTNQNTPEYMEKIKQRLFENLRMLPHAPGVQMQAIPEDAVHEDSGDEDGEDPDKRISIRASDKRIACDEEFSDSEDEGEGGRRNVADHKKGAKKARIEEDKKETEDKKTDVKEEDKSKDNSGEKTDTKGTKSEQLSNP

Histone deacetylase 9 = Histone deacetylase 9 (Homo sapiens, UniProt Q9UKV0); test: Inhibition of HDAC9 (unknown origin) after 60 mins by fluorescence assay
Sequence of Histone deacetylase 9 (Q9UKV0 whole entry): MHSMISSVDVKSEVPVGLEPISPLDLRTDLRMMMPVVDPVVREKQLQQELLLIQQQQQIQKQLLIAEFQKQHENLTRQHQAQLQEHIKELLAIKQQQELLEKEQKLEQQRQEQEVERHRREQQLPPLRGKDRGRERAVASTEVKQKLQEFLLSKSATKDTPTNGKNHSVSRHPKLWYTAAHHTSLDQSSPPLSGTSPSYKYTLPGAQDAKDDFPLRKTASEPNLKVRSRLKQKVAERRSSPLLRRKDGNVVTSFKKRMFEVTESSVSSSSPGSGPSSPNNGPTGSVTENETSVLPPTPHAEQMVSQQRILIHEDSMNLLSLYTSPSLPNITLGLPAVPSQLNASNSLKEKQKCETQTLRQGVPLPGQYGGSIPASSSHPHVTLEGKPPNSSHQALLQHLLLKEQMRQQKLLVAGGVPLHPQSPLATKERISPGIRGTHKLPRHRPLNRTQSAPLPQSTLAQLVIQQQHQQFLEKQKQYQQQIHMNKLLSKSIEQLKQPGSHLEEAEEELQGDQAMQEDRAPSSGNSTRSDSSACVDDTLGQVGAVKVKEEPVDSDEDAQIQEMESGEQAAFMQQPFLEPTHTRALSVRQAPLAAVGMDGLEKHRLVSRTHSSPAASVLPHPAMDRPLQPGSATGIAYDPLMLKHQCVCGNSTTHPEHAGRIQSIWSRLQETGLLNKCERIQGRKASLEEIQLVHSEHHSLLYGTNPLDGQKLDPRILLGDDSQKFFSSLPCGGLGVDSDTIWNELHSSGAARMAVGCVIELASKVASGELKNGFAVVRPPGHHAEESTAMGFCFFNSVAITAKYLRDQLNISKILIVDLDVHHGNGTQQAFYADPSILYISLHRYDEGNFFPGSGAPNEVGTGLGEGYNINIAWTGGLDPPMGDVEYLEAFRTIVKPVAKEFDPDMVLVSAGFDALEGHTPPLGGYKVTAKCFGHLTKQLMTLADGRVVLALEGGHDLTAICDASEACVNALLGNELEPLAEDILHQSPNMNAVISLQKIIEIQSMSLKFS

Histone deacetylase 5 = Histone deacetylase 5 (Homo sapiens, UniProt Q9UQL6); test: Inhibition of HDAC5 (unknown origin) after 60 mins by fluorescence assay
Sequence of Histone deacetylase 5 (Q9UQL6 whole entry): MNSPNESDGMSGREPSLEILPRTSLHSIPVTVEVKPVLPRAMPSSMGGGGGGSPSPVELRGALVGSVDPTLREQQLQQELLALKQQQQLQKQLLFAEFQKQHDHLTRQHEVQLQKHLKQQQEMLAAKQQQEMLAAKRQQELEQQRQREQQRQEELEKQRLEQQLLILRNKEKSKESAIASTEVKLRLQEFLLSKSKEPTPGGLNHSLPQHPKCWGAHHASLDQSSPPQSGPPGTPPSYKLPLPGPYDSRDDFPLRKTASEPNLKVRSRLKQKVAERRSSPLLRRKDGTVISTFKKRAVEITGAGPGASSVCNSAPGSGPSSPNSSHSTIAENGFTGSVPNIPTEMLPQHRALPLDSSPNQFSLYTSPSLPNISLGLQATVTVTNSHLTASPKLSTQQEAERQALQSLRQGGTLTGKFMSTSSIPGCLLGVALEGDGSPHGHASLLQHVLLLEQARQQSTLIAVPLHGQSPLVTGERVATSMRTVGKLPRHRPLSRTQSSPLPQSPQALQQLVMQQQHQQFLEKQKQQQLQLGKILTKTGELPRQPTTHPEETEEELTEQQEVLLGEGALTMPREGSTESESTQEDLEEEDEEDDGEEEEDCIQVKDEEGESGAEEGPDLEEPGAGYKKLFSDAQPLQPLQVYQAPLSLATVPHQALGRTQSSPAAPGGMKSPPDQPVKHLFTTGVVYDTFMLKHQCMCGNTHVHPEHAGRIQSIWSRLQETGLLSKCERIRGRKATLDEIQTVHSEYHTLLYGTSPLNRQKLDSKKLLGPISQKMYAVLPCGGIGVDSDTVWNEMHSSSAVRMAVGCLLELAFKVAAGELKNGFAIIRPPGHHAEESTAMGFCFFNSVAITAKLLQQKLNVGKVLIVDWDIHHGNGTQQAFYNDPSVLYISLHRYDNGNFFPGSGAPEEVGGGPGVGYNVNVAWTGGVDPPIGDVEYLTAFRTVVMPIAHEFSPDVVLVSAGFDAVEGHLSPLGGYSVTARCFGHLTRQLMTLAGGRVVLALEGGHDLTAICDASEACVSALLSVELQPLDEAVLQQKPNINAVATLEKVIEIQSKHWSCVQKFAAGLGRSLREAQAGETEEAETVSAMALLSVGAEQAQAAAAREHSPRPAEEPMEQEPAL

Histone deacetylase 3 = Histone deacetylase 3 (Homo sapiens, UniProt O15379); test: Inhibition of HDAC3 (unknown origin) after 60 mins by fluorescence assay
Sequence of Histone deacetylase 3 (O15379 whole entry): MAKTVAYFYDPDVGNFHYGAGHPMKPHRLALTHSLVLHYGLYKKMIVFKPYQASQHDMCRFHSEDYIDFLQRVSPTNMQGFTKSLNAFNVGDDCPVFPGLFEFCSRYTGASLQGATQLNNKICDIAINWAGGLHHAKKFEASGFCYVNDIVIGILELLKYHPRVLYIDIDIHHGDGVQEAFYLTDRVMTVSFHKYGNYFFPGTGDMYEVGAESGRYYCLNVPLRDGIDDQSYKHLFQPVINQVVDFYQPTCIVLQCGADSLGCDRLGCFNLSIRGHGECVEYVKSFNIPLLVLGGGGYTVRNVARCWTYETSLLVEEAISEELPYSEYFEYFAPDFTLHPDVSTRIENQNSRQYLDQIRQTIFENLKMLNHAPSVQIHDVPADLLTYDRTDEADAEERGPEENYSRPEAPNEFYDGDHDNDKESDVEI

Histone deacetylase 1 = Histone deacetylase 1 (Homo sapiens, UniProt Q13547); test: Inhibition of HDAC1 (unknown origin) after 60 mins by fluorescence assay
Sequence of Histone deacetylase 1 (Q13547 whole entry): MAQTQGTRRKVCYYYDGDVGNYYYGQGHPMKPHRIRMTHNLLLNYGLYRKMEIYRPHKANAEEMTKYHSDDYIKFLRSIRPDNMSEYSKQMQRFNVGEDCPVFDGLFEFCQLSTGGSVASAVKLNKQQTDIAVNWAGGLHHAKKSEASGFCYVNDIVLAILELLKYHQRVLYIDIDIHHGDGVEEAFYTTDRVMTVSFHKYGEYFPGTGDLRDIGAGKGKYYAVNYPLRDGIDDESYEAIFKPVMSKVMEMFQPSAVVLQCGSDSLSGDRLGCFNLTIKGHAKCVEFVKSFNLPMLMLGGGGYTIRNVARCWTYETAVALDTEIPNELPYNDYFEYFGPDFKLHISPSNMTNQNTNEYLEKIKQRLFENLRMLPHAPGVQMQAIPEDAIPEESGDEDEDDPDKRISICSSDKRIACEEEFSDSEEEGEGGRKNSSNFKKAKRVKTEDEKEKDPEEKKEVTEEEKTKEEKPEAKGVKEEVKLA

Histone deacetylase 2 [3] = target: T3, Histone deacetylase 2; details: HeLa, at 10 µM
Description: Inhibition of HDAC2 in human HeLa cells assessed as increase in histone H3 acetylation at 10 uM after 48 hrs by Western blotting analysis

Homo sapiens [4] = species: Homo sapiens; test: Selectivity ratio of IC50 for HDAC4 (unknown origin) to IC50 for HDAC8 (unknown origin)
Homo sapiens [5] = species: Homo sapiens; test: Selectivity ratio of IC50 for HDAC4 (unknown origin) to IC50 for HDAC6 (unknown origin)
Homo sapiens [6] = species: Homo sapiens; test: Selectivity ratio of IC50 for HDAC2 (unknown origin) to IC50 for HDAC8 (unknown origin)
Homo sapiens [7] = species: Homo sapiens; test: Selectivity ratio of IC50 for HDAC2 (unknown origin) to IC50 for HDAC6 (unknown origin)
Histone deacetylase 7 = target: T4, Histone deacetylase 7 (Homo sapiens, UniProt Q8WUI4); test: Inhibition of HDAC7 (unknown origin) after 60 mins by fluorescence assay
T4 sequence (Q8WUI4 whole entry): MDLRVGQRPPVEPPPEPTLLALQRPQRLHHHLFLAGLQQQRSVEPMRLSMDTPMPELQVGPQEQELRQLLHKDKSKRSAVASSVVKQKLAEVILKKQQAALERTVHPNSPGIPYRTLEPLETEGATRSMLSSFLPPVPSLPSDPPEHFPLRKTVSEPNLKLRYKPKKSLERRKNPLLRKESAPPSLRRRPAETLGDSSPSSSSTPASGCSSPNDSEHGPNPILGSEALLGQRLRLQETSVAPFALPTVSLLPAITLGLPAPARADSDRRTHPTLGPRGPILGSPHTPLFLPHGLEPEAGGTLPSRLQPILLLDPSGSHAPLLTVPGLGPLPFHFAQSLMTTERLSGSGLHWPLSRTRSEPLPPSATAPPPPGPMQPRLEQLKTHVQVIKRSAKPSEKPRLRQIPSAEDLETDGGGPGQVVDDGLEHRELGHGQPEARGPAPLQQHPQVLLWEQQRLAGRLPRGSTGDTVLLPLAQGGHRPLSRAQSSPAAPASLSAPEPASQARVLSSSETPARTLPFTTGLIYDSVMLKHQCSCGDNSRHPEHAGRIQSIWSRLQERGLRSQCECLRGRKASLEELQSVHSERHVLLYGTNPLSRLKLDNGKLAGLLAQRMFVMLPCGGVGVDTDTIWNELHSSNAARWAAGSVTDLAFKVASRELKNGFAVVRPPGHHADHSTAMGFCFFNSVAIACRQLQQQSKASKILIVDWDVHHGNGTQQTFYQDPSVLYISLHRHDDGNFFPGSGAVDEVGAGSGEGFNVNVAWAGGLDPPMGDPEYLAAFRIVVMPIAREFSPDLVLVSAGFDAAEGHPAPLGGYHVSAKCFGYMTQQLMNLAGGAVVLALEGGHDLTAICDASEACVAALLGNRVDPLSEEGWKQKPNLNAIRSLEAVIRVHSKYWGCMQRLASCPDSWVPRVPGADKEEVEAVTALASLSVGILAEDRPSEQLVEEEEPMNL

SMILES: CNC(=O)c1cccc(C(=O)NO)c1
- IC50 (Histone deacetylase 8): 14 µM
- IC50 [1]: 2.5 µM
- IC50 (Histone deacetylase 4): > 33 µM
- IC50 (Histone deacetylase 2 [2]): > 33 µM

SMILES: O=C(NO)c1cccc(C(=O)Nc2ccccc2)c1
- IC50 (Histone deacetylase 4): > 33 µM

SMILES: O=C(NO)c1cccc(CNc2ccccc2)c1
- IC50 (Histone deacetylase 8): 1.7 µM
- IC50 [1]: 1.3 µM
- IC50 (Histone deacetylase 4): > 33 µM
- IC50 (Histone deacetylase 2 [2]): > 33 µM

SMILES: Cc1cccc(C(=O)NO)c1
- IC50 (Histone deacetylase 8): 3.3 µM
- IC50 [1]: 0.65 µM
- IC50 (Histone deacetylase 4): > 33 µM
- IC50 (Histone deacetylase 2 [2]): > 33 µM

SMILES: O=C(NO)c1cccc(C(=O)NCCc2ccccc2)c1
- IC50 (Histone deacetylase 9): > 33 µM
- IC50 (Histone deacetylase 5): > 33 µM
- IC50 (Histone deacetylase 3): 23 µM
- IC50 (Histone deacetylase 2 [2]): 9 µM
- IC50 (Histone deacetylase 1): 12 µM
- inhibition (Histone deacetylase 2 [3]): Active

SMILES: O=C(NO)c1cccc(C(=O)NCc2ccccc2)c1
- Ratio IC50 (Homo sapiens [4]): > 50
- Ratio IC50 (Homo sapiens [5]): > 50
- Ratio IC50 (Homo sapiens [6]): > 50
- Ratio IC50 (Homo sapiens [7]): > 50
- IC50 (Histone deacetylase 8): 0.21 µM
- IC50 [1]: 0.034 µM
- IC50 (Histone deacetylase 4): > 33 µM
- IC50 (Histone deacetylase 2 [2]): 11 µM

SMILES: O=C(/C=C/c1cccc(C(=O)NO)c1)Nc1ccccc1
- Ratio IC50 (Homo sapiens [4]): > 130
- Ratio IC50 (Homo sapiens [5]): > 130
- Ratio IC50 (Homo sapiens [6]): > 130
- Ratio IC50 (Homo sapiens [7]): > 130
- IC50 (Histone deacetylase 8): 0.037 µM
- IC50 (Histone deacetylase 9): 12 µM
- IC50 (Histone deacetylase 7): 8.4 µM
- IC50 [1]: 0.021 µM
- IC50 (Histone deacetylase 5): 26 µM
- IC50 (Histone deacetylase 4): 14 µM
- IC50 (Histone deacetylase 3): 18 µM
- IC50 (Histone deacetylase 2 [2]): 4.8 µM
- IC50 (Histone deacetylase 1): 6.1 µM
- inhibition (Histone deacetylase 2 [3]): Active

SMILES: O=C(NO)c1cccc(C(=O)NCCc2cccnc2)c1
- IC50 (Histone deacetylase 8): 0.42 µM
- IC50 [1]: 0.059 µM
- IC50 (Histone deacetylase 4): > 33 µM
- IC50 (Histone deacetylase 2 [2]): 20 µM

Source: ChEMBL document CHEMBL2380312, “Discovery of the first histone deacetylase 6/8 dual inhibitors” (J Med Chem, 2013)
